Source: US20260048046A1, “METHOD FOR IMPROVING GROWTH PERFORMANCE IN FEEDLOT CATTLE” (Elanco US Inc., priority 2022, published 2026)

Columns and labels:
[1] = tested on: beef cattle; test: 91-d study: Warner-Bratzler shear force of striploin steaks; assay type: in vivo; conditions: 91-d treatment, LS mean, shear force after 14-d aging
Method: Following chill, striploins (LM) were collected from three randomly selected cattle/CPE and shipped to the University of Illinois Meat Science Laboratory for Warner-Bratzler shear force (WBSF) determination. At the laboratory, the anterior end of the striploin was fabricated into 2.54-cm steaks, vacuum packaged, and aged at 4° C. until 14-d postmortem. Steaks were frozen after aging, and then thawed at 4° C. for 24 h before being cooked on a Farberware Open Hearth electric broiler (Farberware, Bronx, NY). Copper-constantan Type-T thermocouples (Omega Engineering. Stamford, CT) connected to a digital scanning thermometer (Barnant Co., Barington, IL) were used to monitor internal temperature, and each steak was flipped a single time when the internal temperature reached 35° C. The steaks were removed from the grill when a temperature of 70° C. was achieved and cooled to ˜25° C. before six cores (1.25 cm diameter) were removed parallel to muscle fiber orientation. Cores were sheared perpendicular to the muscle fibers using a Texture Analyzer TA.HD Plus (Stable Microsystems, Godalming. UK) equipped with a WBSF attachment, and the peak WBSF measurement was averaged over all 6 cores to obtain a single shear force measurement (kg of force) for each steak.

[2] = tested on: beef steers; test: Lubabegron removal period study: animal mobility at harvest; assay type: in vivo, cattle; conditions: for Mobility Score 1, number of animals / Mobility Score 2, number of animals / Mobility Score 3, number of animals / Mobility Score 4, number of animals: Lubabegron 3.5 mg/kg, in lairage at harvest
Method: Seven hundred English x Continental cross steers (initial BW=531±8.8 kg) were used in a randomized complete block design with seven treatments. Pen served as the experimental unit. […] Animals were managed as two-time replications with each replication containing five blocks (7 pens/block and 10 steers/pen). All ten blocks started and ended within 48 hours of each other. Cattle were weighed by pen using a 45,000-kg capacity pen scale (Model WI-130, Avery Weigh-Tronix LLC, Fairmont, MN; 3.66 m×21.34 m). All treatments were on feed for 71 d with harvest scheduled for 72 d. Because of an impending weather event, cattle were weighed to obtain a final BW one d early. Cattle were placed on their respective ration for the additional d and then shipped to the harvest facility the following morning.
657 head were transported to a harvest facility approximately 495 km from the research facility. Animals were scored for animal mobility using the North American Meat Institute (NAMI, 2015) scoring scale described by Edwards-Callaway et al., (2017) while in lairage. […] Experienced staff collected an ear tag number, plant identification (ID), and carcass sequence and applied a unique carcass ID. Data collected on the kill floor included HCW, instances of excessive trim (>approximately 9 kg), and prevalence of liver abscess (Brown et al., 1975). Other carcass measures were obtained via instrument grading.
Continuous variables were analyzed using the Mixed procedure of SAS (version 9.4; SAS Institute, Cary, NC). Block served as a random effect whereas treatment was fixed. Initial body weight was used to describe the uniformity of cattle randomized to treatment and used as a covariate when appropriate. Data were calculated with deads and removals excluded. Linear and quadratic effects of lubabegron removal were conducted as were individual comparisons for duration of removal (i.e., 0 vs 2 d; 0 vs 4 d, 0 vs 6 d; 0 vs 8 d and 0 vs 16 d). Fisher's Exact test was evaluated on mobility scores 1 and 2. No test was conducted on mobility scores of 3 or 4 because no scores were reported. Simple means and standard deviation of the tissues collected for the 5 animals were calculated.

## CC(C)(Cc1ccc(Oc2ncccc2C#N)cc1)NC[C@H](O)COc1ccccc1-c1cccs1 [LUB, 2-{4-[2-({(2S)-2-Hydroxy-3-[2-(2-thienyl)phenoxy]propyl}amino)-2-methylpropyl]phenoxy}nicotinonitrile]
[1]; LUB 1.38 mg·kg^−1 DM
  14-dWBSP: 2.79 kg
[1]; LUB 5.5 mg·kg^−1 DM
  14-dWBSP: 2.92 kg
[1]; LUB 22.0 mg·kg^−1 DM
  14-dWBSP: 2.75 kg
[2]; 3.5 mg/kg DM vs non-treated, P<0.25
  Animal mobility when lubabegron was fed: No differences
[2]; removal duration 0 d
  Mobility Score 1, number of animals: 92 n
  Mobility Score 2, number of animals: 3 n
  Mobility Score 3, number of animals: 0 n
  Mobility Score 4, number of animals: 0 n
[2]; removal duration 2 d
  Mobility Score 1, number of animals: 95 n
  Mobility Score 2, number of animals: 0 n
  Mobility Score 3, number of animals: 0 n
  Mobility Score 4, number of animals: 0 n
[2]; removal duration 4 d
  Mobility Score 1, number of animals: 91 n
  Mobility Score 2, number of animals: 2 n
  Mobility Score 3, number of animals: 0 n
  Mobility Score 4, number of animals: 0 n
[2]; removal duration 6 d
  Mobility Score 1, number of animals: 89 n
  Mobility Score 2, number of animals: 4 n
  Mobility Score 3, number of animals: 0 n
  Mobility Score 4, number of animals: 0 n
[2]; removal duration 8 d
  Mobility Score 1, number of animals: 87 n
  Mobility Score 2, number of animals: 4 n
  Mobility Score 3, number of animals: 0 n
  Mobility Score 4, number of animals: 0 n
[2]; removal duration 16 d
  Mobility Score 1, number of animals: 90 n
  Mobility Score 2, number of animals: 5 n
  Mobility Score 3, number of animals: 0 n
  Mobility Score 4, number of animals: 0 n
[2]; lubabegron 3.5 mg/kg DM, removal 0 to 16 d, P<0.06
  Animal mobility with increased duration of removal: tended (P<0.06) to be reduced
